Laboratory results published in patent US4526989A, “1,4-Bis (substituted-amino)-5,8-dihydroxy-anthraquinones and leuco bases thereof” (priority 1979, dated 1985).
Where two headings read alike, the source gives them in different places.

How the values were obtained:
melanotic melanoma B16 = experiment: Melanotic Melanoma B16 test; type: in vivo, C57BC/6 mice
Protocol: The animals used are C57BC/6 mice, all of the same sex, weighing a minimum of 17 g. and all within a 3-g. weight range. There are normally 10 animals per test group. A one-gram portion of melanotic melanoma B16 tumor is homogenized in 10 ml. of cold balanced salt solution and a 0.5-ml. aliquot of the homogenate is implanted intraperitoneally into each of the test mice. The test compounds are administered intraperitoneally on days one through 9 (relative to tumor inoculation) at various doses. The animals are weighed and survivors are recorded on a regular basis for 60 days. The median survival time and the ratio of survival time for treated (T)/control (C) animals are calculated. […] The criterion for efficacy is T/C×100≥125%.

[1] = tested on: lymphocytic leukemia P388; experiment: Lymphocytic leukemia P388 test (intraperitoneal administration); type: in vivo, DBA/2 mice
Protocol: The animals used are DBA/2 mice all of one sex, weighing a minimum of 17 g. and all within a 3 gram weight range. There are 5 or 6 animals per test group. The tumor transplant is by intraperitoneal injection of 0.1 ml. of dilute ascitic fluid containing 10^6 cells of lymphocytic leukemia P388. The test compounds are administered intraperitoneally on days one, 5 and 9 (relative to tumor inoculation) at various doses. The animals are weighed and survivors are recorded on a regular basis for 30 days. The median survival time and the ratio of survival time for treated (T)/control (C) animals are calculated.

[2] = 12 mg./kg. i.p., days 1 through 9
[3] = 25 mg./kg. i.p., days 1 through 9
[4] = 50 mg./kg. i.p., days 1 through 9
[5] = Mus musculus, ip, 12 mg./kg. i.p., days 1 through 9, efficacy ≥125%, read-out: T/C × 100
[6] = Mus musculus, ip, 25 mg./kg. i.p., days 1 through 9, efficacy ≥125%, read-out: T/C × 100
[7] = Mus musculus, ip, 50 mg./kg. i.p., days 1 through 9, efficacy ≥125%, read-out: T/C × 100
[8] = 100 mg./kg. i.p., days 1, 5 and 9
[9] = 200 mg./kg. i.p., days 1, 5 and 9
[10] = Mus musculus, P388, ip, 100 mg./kg. i.p., days 1, 5 and 9, efficacy ≥125%, read-out: T/C × 100
[11] = Mus musculus, P388, ip, 200 mg./kg. i.p., days 1, 5 and 9, efficacy ≥125%, read-out: T/C × 100
[12] = 12 mg./kg. i.p., days 1, 5 and 9
[13] = 25 mg./kg. i.p., days 1, 5 and 9
[14] = 50 mg./kg. i.p., days 1, 5 and 9
[15] = Mus musculus, P388, ip, 12 mg./kg. i.p., days 1, 5 and 9, efficacy ≥125%, read-out: T/C × 100
[16] = Mus musculus, P388, ip, 25 mg./kg. i.p., days 1, 5 and 9, efficacy ≥125%, read-out: T/C × 100
[17] = Mus musculus, P388, ip, 50 mg./kg. i.p., days 1, 5 and 9, efficacy ≥125%, read-out: T/C × 100
[18] = 6 mg./kg. i.p., days 1 through 9
[19] = Mus musculus, ip, 6 mg./kg. i.p., days 1 through 9, efficacy ≥125%, read-out: T/C × 100
[20] = Mus musculus, ip, read-out: T/C × 100
[21] = Mus musculus, P388, ip, read-out: T/C × 100

NCCCCNC1=C2C(=O)c3c(O)ccc(O)c3C(=O)C2=C(NCCCCN)CC1 [Leuco-1,4-bis(4-aminobutylamino)-5,8-dihydroxyanthraquinone]
Median Survival Time (melanotic melanoma B16; [2]): 16.0 days
Median Survival Time (melanotic melanoma B16; [3]): 18.5 days
Median Survival Time (melanotic melanoma B16; [4]): 20.0 days
Median Survival Time (melanotic melanoma B16; 100 mg./kg. i.p., days 1 through 9): 21.0 days
response vs control in vivo at 12 mg/kg (melanotic melanoma B16; [5]): 94%
response vs control in vivo at 25 mg/kg (melanotic melanoma B16; [6]): 109%
response vs control in vivo at 50 mg/kg (melanotic melanoma B16; [7]): 118%
response vs control in vivo at 100 mg/kg (melanotic melanoma B16; Mus musculus, ip, 100 mg./kg. i.p., days 1 through 9, efficacy ≥125%, read-out: T/C × 100): 124%
Median Survival Time [1, 8]: 14.0 days
Median Survival Time [1, 9]: 17.0 days
Median Survival Time ([1]; 300 mg./kg. i.p., days 1, 5 and 9): 18.0 days
Median Survival Time ([1]; 400 mg./kg. i.p., days 1, 5 and 9): 20.0 days
response vs control in vivo at 100 mg/kg [1, 10]: 133%
response vs control in vivo at 200 mg/kg [1, 11]: 162%
response vs control in vivo at 300 mg/kg ([1]; Mus musculus, P388, ip, 300 mg./kg. i.p., days 1, 5 and 9, efficacy ≥125%, read-out: T/C × 100): 171%
response vs control in vivo at 400 mg/kg ([1]; Mus musculus, P388, ip, 400 mg./kg. i.p., days 1, 5 and 9, efficacy ≥125%, read-out: T/C × 100): 190%

CCN(CC)CCNC1=C2C(=O)c3c(O)ccc(O)c3C(=O)C2=C(NCCN(CC)CC)CC1 [Leuco-1,4-bis[(2-diethylaminoethyl)amino]-5,8-dihydroxyanthraquinone]
Median Survival Time (melanotic melanoma B16; [4]): 23.0 days
response vs control in vivo at 50 mg/kg (melanotic melanoma B16; [7]): 139%
Median Survival Time [1, 12]: 12.0 days
Median Survival Time [1, 13]: 13.0 days
Median Survival Time [1, 14]: 15.0 days
Median Survival Time [1, 8]: 17.0 days
Median Survival Time [1, 9]: 17.0 days
response vs control in vivo at 12 mg/kg [1, 15]: 126%
response vs control in vivo at 25 mg/kg [1, 16]: 137%
response vs control in vivo at 50 mg/kg [1, 17]: 158%
response vs control in vivo at 100 mg/kg [1, 10]: 179%
response vs control in vivo at 200 mg/kg [1, 11]: 179%

O=C1c2c(O)ccc(O)c2C(=O)c2c(NCCN3CCCC3)ccc(NCCN3CCCC3)c21 [1,4-Bis[2-(1-pyrrolidinyl)ethylamino]-5,8-dihydroxyanthraquinone]
Median Survival Time (melanotic melanoma B16; [18]): 22.0 days
Median Survival Time (melanotic melanoma B16; [2]): 22.0 days
Median Survival Time (melanotic melanoma B16; [3]): 24.5 days
response vs control in vivo at 6 mg/kg (melanotic melanoma B16; [19]): 137%
response vs control in vivo at 12 mg/kg (melanotic melanoma B16; [5]): 137%
response vs control in vivo at 25 mg/kg (melanotic melanoma B16; [6]): 153%
Median Survival Time [1, 12]: 18.0 days
Median Survival Time [1, 13]: 21.0 days
Median Survival Time [1, 14]: 23.0 days
Median Survival Time [1, 8]: 24.0 days
response vs control in vivo at 12 mg/kg [1, 15]: 164%
response vs control in vivo at 25 mg/kg [1, 16]: 191%
response vs control in vivo at 50 mg/kg [1, 17]: 209%
response vs control in vivo at 100 mg/kg [1, 10]: 218%

NCCCNC1=C2C(=O)c3c(O)ccc(O)c3C(=O)C2=C(NCCCN)CC1 [Leuco-1,4-bis(3-aminopropylamino)-5,8-dihydroxyanthraquinone]
Median Survival Time (melanotic melanoma B16; [18]): 22.5 days
Median Survival Time (melanotic melanoma B16; [2]): 23.5 days
Median Survival Time (melanotic melanoma B16; [3]): 27.0 days
Median Survival Time (melanotic melanoma B16; [4]): 31.5 days
response vs control in vivo at 6 mg/kg (melanotic melanoma B16; [19]): 141%
response vs control in vivo at 12 mg/kg (melanotic melanoma B16; [5]): 147%
response vs control in vivo at 25 mg/kg (melanotic melanoma B16; [6]): 169%
response vs control in vivo at 50 mg/kg (melanotic melanoma B16; [7]): 197%
Median Survival Time [1, 12]: 16.0 days
Median Survival Time [1, 13]: 18.0 days
Median Survival Time [1, 14]: 16.0 days
Median Survival Time [1, 8]: 18.0 days
Median Survival Time [1, 9]: 18.0 days
response vs control in vivo at 12 mg/kg [1, 15]: 133%
response vs control in vivo at 25 mg/kg [1, 16]: 150%
response vs control in vivo at 50 mg/kg [1, 17]: 133%
response vs control in vivo at 100 mg/kg [1, 10]: 150%
response vs control in vivo at 200 mg/kg [1, 11]: 150%

Cl.Cl.O=C1c2c(O)ccc(O)c2C(=O)c2c(NCCNCCO)ccc(NCCNCCO)c21 [1,4-Bis[2-(2-hydroxyethylamino)ethylamino]-5,8-dihydroxyanthraquinone Dihydrochloride]
Median Survival Time (melanotic melanoma B16; 0.3 mg./kg. i.p., days 1 through 9): 34.0 days
Median Survival Time (melanotic melanoma B16; 0.7 mg./kg. i.p., days 1 through 9): > 34.0 days
Median Survival Time (melanotic melanoma B16; 1.5 mg./kg. i.p., days 1 through 9): > 34.0 days
Median Survival Time (melanotic melanoma B16; 3 mg./kg. i.p., days 1 through 9): > 28.5 days
Median Survival Time (melanotic melanoma B16; [18]): 15.0 days
Median Survival Time (melanotic melanoma B16; [2]): 11.0 days
response vs control in vivo at 6 mg/kg (melanotic melanoma B16; [20]): 100%
response vs control in vivo at 0.3 mg/kg (melanotic melanoma B16; Mus musculus, ip, 0.3 mg./kg. i.p., days 1 through 9, efficacy ≥125%, read-out: T/C × 100): 227%
response vs control in vivo at 0.7 mg/kg (melanotic melanoma B16; Mus musculus, ip, 0.7 mg./kg. i.p., days 1 through 9, efficacy ≥125%, read-out: T/C × 100): > 227%
response vs control in vivo at 1.5 mg/kg (melanotic melanoma B16; Mus musculus, ip, 1.5 mg./kg. i.p., days 1 through 9, efficacy ≥125%, read-out: T/C × 100): > 227%
response vs control in vivo at 3 mg/kg (melanotic melanoma B16; Mus musculus, ip, 3 mg./kg. i.p., days 1 through 9, efficacy ≥125%, read-out: T/C × 100): > 190%
response vs control in vivo at 12 mg/kg (melanotic melanoma B16; [5]): 73%
Median Survival Time ([1]; 0.04 mg./kg. i.p., days 1, 5 and 9): 20.0 days
Median Survival Time ([1]; 0.09 mg./kg. i.p., days 1, 5 and 9): 21.0 days
Median Survival Time ([1]; 0.19 mg./kg. i.p., days 1, 5 and 9): 25.0 days
Median Survival Time ([1]; 0.39 mg./kg. i.p., days 1, 5 and 9): 27.0 days
Median Survival Time ([1]; 0.78 mg./kg. i.p., days 1, 5 and 9): > 29.0 days
Median Survival Time ([1]; 1.5 mg./kg. i.p., days 1, 5 and 9): > 29.0 days
Median Survival Time ([1]; 3.1 mg./kg. i.p., days 1, 5 and 9): 22.0 days
Median Survival Time ([1]; 6.2 mg./kg. i.p., days 1, 5 and 9): 20.0 days
Median Survival Time ([1]; 12.5 mg./kg. i.p., days 1, 5 and 9): 13.0 days
response vs control in vivo at 0.04 mg/kg [1, 21]: 200%
response vs control in vivo at 0.19 mg/kg [1, 21]: 250%
response vs control in vivo at 6.2 mg/kg [1, 21]: 200%
response vs control in vivo at 0.09 mg/kg ([1]; Mus musculus, P388, ip, 0.09 mg./kg. i.p., days 1, 5 and 9, efficacy ≥125%, read-out: T/C × 100): 210%
response vs control in vivo at 0.39 mg/kg ([1]; Mus musculus, P388, ip, 0.39 mg./kg. i.p., days 1, 5 and 9, efficacy ≥125%, read-out: T/C × 100): 270%
response vs control in vivo at 0.78 mg/kg ([1]; Mus musculus, P388, ip, 0.78 mg./kg. i.p., days 1, 5 and 9, efficacy ≥125%, read-out: T/C × 100): > 290%
response vs control in vivo at 1.5 mg/kg ([1]; Mus musculus, P388, ip, 1.5 mg./kg. i.p., days 1, 5 and 9, efficacy ≥125%, read-out: T/C × 100): > 290%
response vs control in vivo at 3.1 mg/kg ([1]; Mus musculus, P388, ip, 3.1 mg./kg. i.p., days 1, 5 and 9, efficacy ≥125%, read-out: T/C × 100): 220%
response vs control in vivo at 12.5 mg/kg ([1]; Mus musculus, P388, ip, 12.5 mg./kg. i.p., days 1, 5 and 9, efficacy ≥125%, read-out: T/C × 100): 130%

NCCNC1=C2C(=O)c3c(O)ccc(O)c3C(=O)C2=C(NCCN)CC1 [Leuco-1,4-bis(2-aminoethylamino)-5,8-dihydroxyanthraquinone]
Median Survival Time (melanotic melanoma B16; [2]): 32.0 days
response vs control in vivo at 12 mg/kg (melanotic melanoma B16; [20]): 200%
Median Survival Time [1, 12]: 18.0 days
Median Survival Time [1, 13]: 19.0 days
Median Survival Time [1, 14]: 23.0 days
Median Survival Time [1, 8]: 19.0 days
response vs control in vivo at 12 mg/kg [1, 21]: 150%
response vs control in vivo at 100 mg/kg [1, 21]: 158%
response vs control in vivo at 25 mg/kg [1, 16]: 158%
response vs control in vivo at 50 mg/kg [1, 17]: 192%

CCN(CC)CCNc1ccc(NCCN(CC)CC)c2c1C(=O)c1c(O)ccc(O)c1C2=O [1,4-Bis[(2-diethylaminoethyl)amino]-5,8-dihydroxyanthraquinone]
Median Survival Time (melanotic melanoma B16; [4]): 20.5 days
response vs control in vivo at 50 mg/kg (melanotic melanoma B16; [7]): 125%
Median Survival Time [1, 12]: 12.0 days
Median Survival Time [1, 13]: 16.0 days
Median Survival Time [1, 14]: 15.0 days
Median Survival Time [1, 8]: 18.0 days
Median Survival Time [1, 9]: 20.0 days
response vs control in vivo at 12 mg/kg [1, 15]: 126%
response vs control in vivo at 25 mg/kg [1, 16]: 168%
response vs control in vivo at 50 mg/kg [1, 17]: 158%
response vs control in vivo at 100 mg/kg [1, 10]: 189%
response vs control in vivo at 200 mg/kg [1, 11]: 210%
